Holding throughout (experiment): DTP human tumour cell line panel, 48 h
Experiment [1] has as its system LOX IMVI melanoma.
Experiment [2] deals with HS 578T breast.
Experiment [3] has as its system NCI-H460 lung.
The test system of experiment [4] is T-47D breast.
Experiment [5] relates to MDA-MB-435.
The test system of experiment [6] is SNB-19 CNS.
Experiment [7] has as its system EKVX NSCLC.
The subject of experiment [8] is SR leukemia.
The test system of experiment [9] is K-562 leukemia.
Experiment [10] concerns SF-539 CNS.
The test system of experiment [11] is CAKI-1 renal.
Experiment [12] concerns OVCAR-3 ovarian.
Experiment [13] concerns SW-620 colon.

The term TGI denotes the concentration at which net growth stops. Read a high TGI as less potent growth arrest. The term GI50 denotes the concentration giving 50% growth inhibition.

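These data come from cells grown in 96-well plates and exposed to compound for 48 hours at five concentrations. GI50 is the concentration that inhibits growth by half. TGI marks complete inhibition of growth.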 Bounds are passed on as bounds.

For `CCOC(=O)c1cc(-n2nnc3ccccc32)cn1C`, the TGI in experiment [1], in experiment [2], in [3], in [4], in [5] and in [6] was > 10 µM each time. Further, the TGI in experiment [7], in experiment [8], in experiment [9], in [10], in experiment [11] and in experiment [12] was > 10 µM throughout.

Turning to `Cc1nc(SCC(=O)Nc2ccc(Cl)cc2)c2sc(=S)n(-c3ccccc3)c2n1`, the TGI in [1], in experiment [2], in [3], in experiment [4], in experiment [5] and in [6] was > 10 µM each time. Besides, the TGI in experiment [7], in experiment [8], in experiment [13], in [9], in [10] and in [11] was > 10 µM each time. The TGI in experiment [12] was > 10 µM.

Regarding `Clc1cc2nn(C3CCCCO3)nc2cc1Cl` (stereo not given), the TGI in [2], in experiment [3], in [4], in experiment [5], in [6] and in experiment [7] was > 100 µM each time. For the same compound, the TGI in [8], in experiment [9], in [10], in experiment [11] and in experiment [12] was > 100 µM in each case.

Turning to `CCCNC(=S)N/N=C(\C)c1ccc(S(=O)(=O)N(C)c2ccccc2)cc1`, the TGI in [1] was > 100 µM; in experiment [2], 24.4 µM; in experiment [3], > 100 µM; in experiment [4] it was > 100 µM; in [5] it was > 100 µM; in [6], > 87.3 µM. The TGI in [7] is > 100 µM; in experiment [8], > 100 µM; in [13], > 100 µM; in experiment [9], > 100 µM; in experiment [10], 21.7 µM; in experiment [11], 97.7 µM. In [12], the TGI was > 100 µM.

Turning to `Cc1ccc(C(=O)Nc2ccc(CP(=O)(O)O)cc2)cc1NC(=O)c1cccc(N)c1`, the TGI in [1], in experiment [2], in experiment [4], in experiment [5], in experiment [6] and in [7] was > 100 µM each time. Also, the TGI in [8], in experiment [13], in [9], in [10], in experiment [11] and in [12] was > 100 µM in each case.

As for `COC(=O)C1CCN(C(=O)OC(C)(C)C)CC1`, the TGI in experiment [1], in experiment [2], in experiment [3], in experiment [4], in experiment [5] and in [6] was > 100 µM in each case. Also, the concentration for total growth inhibition (TGI) in experiment [7], in experiment [8], in experiment [13], in experiment [10], in experiment [11] and in [12] was > 100 µM in each case.

As for `O=c1c2ccccc2[nH]n1Cc1ccccc1`, the TGI in experiment [1], in experiment [2], in experiment [3], in [4], in [5] and in experiment [6] was > 100 µM in each case. Also, the TGI in experiment [7], in experiment [8], in experiment [13], in experiment [9], in [10] and in experiment [11] was > 100 µM in each case. Further, the TGI in experiment [12] is > 100 µM.

Regarding `COc1cc(CSc2ccc(O)cc2)cc(OC)c1OC`, the total growth inhibition concentration (TGI) was > 100 µM in experiment [1]; > 100 µM in experiment [2]; > 100 µM in experiment [3]; 55.5 µM in experiment [4]; > 100 µM in experiment [5]; > 100 µM in experiment [6]. The TGI in experiment [7], in experiment [8], in [13], in experiment [9], in [10] and in experiment [11] was > 100 µM each time. In addition, the TGI in experiment [12] was > 100 µM.

`COc1cccc(/C=N/NC(=O)CSCC(=O)N/N=C/c2cccc(OC)c2OC)c1OC`: the TGI in [2], in [3], in experiment [4], in experiment [5], in [6] and in experiment [7] was > 100 µM in each case. Also, the TGI in [8], in experiment [13], in [9], in [10], in experiment [11] and in experiment [12] was > 100 µM in each case.

In the case of `COc1ccc([N+](=O)[O-])c2c(NCCCN(C)C)ccnc12`, the TGI came out at 31 µM in [1]; 34.6 µM in experiment [2]; 5.63 µM in experiment [3]; 29 µM in [4]; 23.1 µM in experiment [5]; 28.2 µM in experiment [6]. Also, the TGI in experiment [7] was found to be 22.8 µM; in [8], 1.97 µM; in experiment [13] it was 32.4 µM; in [9], 5.73 µM; in [10], 17 µM; in experiment [11], 42.9 µM. The same compound displayed a TGI in experiment [12] of 6.78 µM.

Consider `NC(N)=NS(=O)(=O)c1ccc(N/N=C2/CCOC2=O)cc1`, for which the total growth inhibition concentration (TGI) in experiment [1], in experiment [2], in experiment [3], in experiment [4], in [5] and in [6] was > 100 µM in each case. Moreover, the TGI in experiment [7], in experiment [8], in [13], in [9], in experiment [10] and in experiment [11] was > 100 µM in each case. For the same compound, in [12], the TGI was > 100 µM.

Consider `CCc1c2c(cc3c1CC1(C3)Cc3cc4c(c(C(=O)OC)c3C1)CCCC4)CCCC2` (stereo not given), for which the total growth inhibition concentration (TGI) in [1] was > 100 µM; in experiment [2], 46.6 µM; in experiment [4] it was > 100 µM; in [5] it was > 100 µM; in experiment [7], 83.9 µM; in experiment [8] it was > 100 µM. Further, the TGI in [9], in experiment [10] and in experiment [12] was > 100 µM in each case.

As to `CC(=O)c1[nH]c(NC(C)C)c(C(=S)Nc2ccccc2)c1N`, the total growth inhibition concentration (TGI) in experiment [1] was 37.8 µM; in experiment [2], > 100 µM; in [3], > 100 µM; in experiment [4] it was 82.6 µM; in [5], 49 µM; in experiment [6] it was 91.5 µM. For the same compound, the TGI in experiment [7] is > 100 µM; in experiment [8], 76.8 µM; in experiment [13], > 100 µM; in experiment [9], > 100 µM; in experiment [10], > 100 µM; in experiment [11], > 100 µM. Also, in experiment [12], the TGI was > 100 µM.

For `CCOC(=O)c1nc2ccc(C(F)(F)F)cc2nc1Nc1cc(OC)c(OC)c(OC)c1`, the TGI in experiment [1], in [2], in experiment [3], in experiment [4], in experiment [5] and in experiment [6] was > 100 µM in each case. Moreover, the TGI in experiment [7], in [8], in experiment [13], in experiment [9], in [10] and in [12] was > 100 µM each time.

As for `CCOC(=O)NN(C(=O)OCC)C(C(=O)C1=CCCCC1)N(NC(=O)OCC)C(=O)OCC`, the TGI in experiment [1], in experiment [2], in experiment [3], in [4], in experiment [5] and in [6] was > 100 µM each time. The TGI in experiment [7], in [8], in [13], in experiment [9], in [10] and in experiment [11] was > 100 µM in each case. Also, the TGI in experiment [12] was > 100 µM.

Consider `OC1c2ccccc2CCC1CN1CCN(CCOC(c2ccc(F)cc2)c2ccc(F)cc2)CC1` (stereo not given), for which the TGI is 27.1 µM in [1]; 45.8 µM in [2]; 48 µM in experiment [3]; 52.9 µM in [4]; 80.1 µM in experiment [5]; > 100 µM in [6]. Further, the TGI in experiment [8] was > 100 µM; in [13], 38.2 µM; in experiment [9], 27.5 µM; in experiment [10], 20.1 µM; in experiment [11], > 100 µM; in experiment [12], 42.6 µM.

`CCOC(=O)/C=C(\C(=O)OCC)n1ccc(=O)n(Cc2cnnn2CCCCOC(C)=O)c1=O`: the TGI in experiment [1] was 17.6 µM; in experiment [2] it was 58.9 µM; in [3], 26 µM; in experiment [4] it was 17.4 µM; in experiment [5], 22.9 µM; in experiment [7] it was 24.8 µM. The TGI was 5.49 µM in experiment [8]; > 41.1 µM in experiment [13]; 10.2 µM in experiment [9]; 5.44 µM in experiment [10]; 6.8 µM in [11]; 21.5 µM in experiment [12]. Moreover, the GI50 is 1.68 µM in experiment [8] and 2.1 µM in [9].

For the compound `O=C(Cc1ccccc1F)NC1=C(Cl)C(=O)c2ccccc2C1=O`, the TGI in experiment [1] was 5.99 µM; in [2] it was 23.8 µM; in [3] it was 21.7 µM; in experiment [4] it was 5.8 µM; in [5] it was 10.4 µM; in experiment [6] it was 25.2 µM. Besides, the TGI was 18 µM in experiment [7]; 3.81 µM in experiment [13]; > 41.8 µM in experiment [9]; 1.93 µM in experiment [10]; 9.42 µM in experiment [11]; 2.9 µM in experiment [12].

As for `COC(=O)c1c(C(=O)OC)c2ccccn2c1-c1cc(OC)c(Br)c(=O)o1`, the TGI in [1], in experiment [2], in experiment [3], in experiment [4], in [5] and in [6] was > 100 µM in each case. The TGI in [7], in [8], in experiment [13], in experiment [9], in [10] and in experiment [12] was > 100 µM throughout.

`S=C(NCCc1ccccn1)N/N=C/c1ccccn1`: the total growth inhibition concentration (TGI) was 22.5 µM in experiment [1]; > 100 µM in [2]; 4.66 µM in [3]; > 100 µM in experiment [4]; > 100 µM in experiment [5]; > 100 µM in experiment [6]. Further, the TGI in [7] is > 27.7 µM; in experiment [8], < 0.0182 µM; in experiment [13] it was > 100 µM; in experiment [10], 3.59 µM; in experiment [11] it was < 0.01 µM; in experiment [12] it was > 100 µM.

With `CCCCn1c(CSc2ccc(Cl)cc2)c(C(=O)OCC)c2cc(OC)c(Br)cc21`, the total growth inhibition concentration (TGI) in [1], in [2], in [3], in experiment [4], in [5] and in experiment [6] was > 100 µM in each case. In addition, the TGI was > 100 µM in experiment [7]; > 100 µM in experiment [8]; > 100 µM in [13]; > 100 µM in experiment [9]; 75.9 µM in experiment [11]; > 100 µM in experiment [12].

In the case of `c1cc(-c2ccc(-c3ccc(-c4ccc(-c5ccncc5)o4)cc3)o2)ccn1`, the TGI in [1] was 42.8 µM; in experiment [2] it was > 100 µM; in [3], 35.3 µM; in [4], 40.9 µM; in [5] it was 33.4 µM; in experiment [6], 39.7 µM. Moreover, the TGI in [7] is 45 µM; in experiment [8], 58.8 µM; in experiment [13] it was > 100 µM; in [9], 39 µM; in experiment [11], 46.7 µM; in experiment [12], 63.8 µM.

The values are drawn from PubChem BioAssay (NCI).
